# According to US9157104B2, “Method to improve phosphate solubilization in plants” (Consiglio Nazionale delle Ricerche, priority 2009, dated 2015):
# Tests used:
# [1] = system: S. meliloti 1021; assay: Microarray gene expression of 1021 cells treated with 0.5 mM compound; details: P-sufficient (13 mM); for pho genes among those significantly affected (microarray): 1021 + 0.5 mM compound vs untreated 1021;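 on all read-outs here: cells were harvested 3 h after the start of each treatment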
# Protocol: For P starvation experiments, cells of 1021 wild-type and RD64 strains were grown at 30° C. to mid exponential phase (OD600=0.6) in RMM broth containing 1% (w/v) mannitol as carbon source and 13 mM P, washed with RMM containing 0 P, resuspended in the same medium and then divided into three cultures. No P (−P), 1.0 mM P (P-starved cells) or 13 mM P (+P cells also named P-sufficient cells) was added into the three cultures, respectively. The P-starved and P-sufficient 1021 wild type cells were treated for 3.0 hours with 0.5 mM IAA. […] To rule out that this bacteria could be partially starved for Trp, RD64 cells were also treated with 0.5 mM Trp and used for microarrays and RT-PCR analyses. […] After 3 hours of each treatment, cell batches were collected, freezed and stored at −80° C. for use in experiments.
# [2] = system: pho operon genes in S. meliloti cells; assay: Quantitative RT-PCR analysis of pho operon genes; format: cell-based; details: P-sufficient (13 mM K-phosphate); vs untreated 1021 cells; compounds 0.5 mM, 3 hours
# Protocol: FIG. S1. Quantitative RT-PCR analysis of pho operon genes in S. meliloti cells under P-sufficient conditions (13 mM K-phosphate). The relative expression level was >1 for genes more highly expressed in RD64 and in 1021 cells treated for 3 hours with 0.5 mM IAA, Ind, Trp, ICA and 2,4-D. The relative expression level was <1 for genes more highly expressed in 1021 cells (control). Error bars represent the standard deviation from three independent biological experiments.
# FIG. 1. Quantitative RT-PCR analysis of pho operon genes expression in S. meliloti cells under P-starving conditions. The relative expression level was >1 for genes more highly expressed in RD64 and in 1021 cells treated for 3 hours with 0.5 mM IAA, Ind, Trp, ICA and 2,4-D. The relative expression level was <1 for genes more highly expressed in 1021 cells (control). Error bars represent the standard deviation from five independent biological experiments (p<0.05).
# Total RNA from P-sufficient and P-starved cells was isolated as previously described (5). cDNA were synthesized with the StrataScript™ reverse transcription reagents (Stratagene) and random hexamers as primers. Quantitative PCR was performed with the Power SYBR PCR Master Mix (Applied Biosystems). Reactions were run on the iCycler iQ (Bio-Rad). The thermo cycling condition were: 15 min at 95° C., 40 cycles of denaturation at 95° C. for 20 s, annealing (20 s) and extension (35 s) at 72° C. Specific primer pairs, designed using the Primer3 software, are shown.
# smc02641 and smc00128 were used as housekeeping genes for data normalization in the comparative Ct method as previously described (8). Phosphatase Activity
# [3] = 1021 + 0.5 mM ICA vs untreated 1021
smiles,measurement,setting,value
"O=C(O)COc1ccc(Cl)cc1Cl [2,4-D, 2,4-dichlorophenoxyacetic acid]",pho genes among those significantly affected (microarray),[1],did not find any pho genes
same,M (log2 ratio of intensities) SMa1077 nex18,"[1]; 1021 + 2,4-D vs untreated 1021",2.581
same,M (log2 ratio of intensities) SMa1128 degP4,"[1]; 1021 + 2,4-D vs untreated 1021",1.552
same,M (log2 ratio of intensities) SMb21221 smb21221,"[1]; 1021 + 2,4-D vs untreated 1021",1.027
same,M (log2 ratio of intensities) SMc00151 gph1,"[1]; 1021 + 2,4-D vs untreated 1021",−0.8713
same,M (log2 ratio of intensities) SMc00335 rpsA,"[1]; 1021 + 2,4-D vs untreated 1021",−0.7145
same,M (log2 ratio of intensities) SMc00363 rpm1,"[1]; 1021 + 2,4-D vs untreated 1021",−0.8021
same,M (log2 ratio of intensities) SMc00591 smc00591,"[1]; 1021 + 2,4-D vs untreated 1021",0.8629
same,M (log2 ratio of intensities) SMc00869 atpF2,"[1]; 1021 + 2,4-D vs untreated 1021",−1.318
same,M (log2 ratio of intensities) SMc00912 groES1,"[1]; 1021 + 2,4-D vs untreated 1021",−1.272
same,M (log2 ratio of intensities) SMc01214 smc01214,"[1]; 1021 + 2,4-D vs untreated 1021",−1.039
same,M (log2 ratio of intensities) SMc01291 rpmD,"[1]; 1021 + 2,4-D vs untreated 1021",−0.9964
same,M (log2 ratio of intensities) SMc01298 rplX,"[1]; 1021 + 2,4-D vs untreated 1021",−1.26
same,M (log2 ratio of intensities) SMc01299 rplN,"[1]; 1021 + 2,4-D vs untreated 1021",−1.587
same,M (log2 ratio of intensities) SMc01300 rpsQ,"[1]; 1021 + 2,4-D vs untreated 1021",−0.9524
same,M (log2 ratio of intensities) SMc01301 rpmC,"[1]; 1021 + 2,4-D vs untreated 1021",−2.007
same,M (log2 ratio of intensities) SMc01319 rplJ,"[1]; 1021 + 2,4-D vs untreated 1021",−1.788
same,M (log2 ratio of intensities) SMc01326 tufB,"[1]; 1021 + 2,4-D vs untreated 1021",−1.664
same,M (log2 ratio of intensities) SMc01858 smc01858,"[1]; 1021 + 2,4-D vs untreated 1021",−1.083
same,M (log2 ratio of intensities) SMc01883 smc01883,"[1]; 1021 + 2,4-D vs untreated 1021",−0.8788
same,M (log2 ratio of intensities) SMc02340 smc02340,"[1]; 1021 + 2,4-D vs untreated 1021",−1.408
same,M (log2 ratio of intensities) SMc02498 atpH,"[1]; 1021 + 2,4-D vs untreated 1021",−1.251
same,M (log2 ratio of intensities) SMc02692 rplY,"[1]; 1021 + 2,4-D vs untreated 1021",−0.8486
same,M (log2 ratio of intensities) SMc02717 leuA1,"[1]; 1021 + 2,4-D vs untreated 1021",−0.8087
same,M (log2 ratio of intensities) SMc02905 dnaX,"[1]; 1021 + 2,4-D vs untreated 1021",−0.7264
same,M (log2 ratio of intensities) SMc03805 tesB,"[1]; 1021 + 2,4-D vs untreated 1021",0.9991
same,M (log2 ratio of intensities) SMc03859 rpsP,"[1]; 1021 + 2,4-D vs untreated 1021",−0.7104
same,M (log2 ratio of intensities) SMc03979 gap,"[1]; 1021 + 2,4-D vs untreated 1021",−1.065
same,M (log2 ratio of intensities) SMc04003 rpmJ,"[1]; 1021 + 2,4-D vs untreated 1021",−1.331
same,phoB regulatory gene expression (qRT-PCR),[2],unaffected
"O=C(O)c1c[nH]c2ccccc12 [ICA, indole-3-carboxylic acid]",M (log2 ratio of intensities) SMa1077 nex18,[1]; [3],0.9938
same,M (log2 ratio of intensities) SMa1118 hspC2,[1]; [3],1.111
same,M (log2 ratio of intensities) SMa1128 degP4,[1]; [3],1.148
same,M (log2 ratio of intensities) SMa1306 virB9,[1]; [3],0.9404
same,M (log2 ratio of intensities) SMb21183 htpG,[1]; [3],0.7619
same,M (log2 ratio of intensities) SMc00323 rpsO,[1]; [3],−0.722
same,M (log2 ratio of intensities) SMc00335 rpsA,[1]; [3],−0.7763
same,M (log2 ratio of intensities) SMc00514 smc00514,[1]; [3],0.8721
same,M (log2 ratio of intensities) SMc00537 smc00537,[1]; [3],0.9583
same,M (log2 ratio of intensities) SMc00868 atpF,[1]; [3],−0.8306
same,M (log2 ratio of intensities) SMc00912 groES1,[1]; [3],−1.491
same,M (log2 ratio of intensities) SMc00913 groEL1,[1]; [3],−0.8349
same,M (log2 ratio of intensities) SMc01169 ald,[1]; [3],1.71
same,M (log2 ratio of intensities) SMc01309 rplC,[1]; [3],−0.7558
same,M (log2 ratio of intensities) SMc01326 tufB,[1]; [3],−0.8768
same,M (log2 ratio of intensities) SMc01534 smc01534,[1]; [3],0.9277
same,M (log2 ratio of intensities) SMc01793 smc01793,[1]; [3],−0.7625
same,M (log2 ratio of intensities) SMc02498 atpH,[1]; [3],−0.7281
same,M (log2 ratio of intensities) SMc02603 smc02603,[1]; [3],1.484
same,M (log2 ratio of intensities) SMc03030 flgG,[1]; [3],−0.7501
same,M (log2 ratio of intensities) SMc03037 flaA,[1]; [3],−0.7114
same,M (log2 ratio of intensities) SMc03168 smc03168,[1]; [3],1.005
same,M (log2 ratio of intensities) SMc03253 smc03253,[1]; [3],1.14
same,M (log2 ratio of intensities) SMc03829 smc03829,[1]; [3],0.9065
same,M (log2 ratio of intensities) SMc04040 ibpA,[1]; [3],1.474
same,M (log2 ratio of intensities) SMc04114 pilA1,[1]; [3],−0.7274
same,M (log2 ratio of intensities) SMc04140 smc04140,[1]; [3],1.126
same,M (log2 ratio of intensities) SMc04307 cyaD2,[1]; [3],1.012
same,pho genes among those significantly affected (microarray),[1],did not find any pho genes
same,phoB regulatory gene expression (qRT-PCR),[2],unaffected
